Reference: ChEMBL document CHEMBL1255492, “Molecular characterization of beta-lactamase genes and their genetic structures in Acinetobacter genospecies 3 isolates in Taiwan” (2010)
≈ marks a conversion by molar mass, not a printed value.

Experiments:
Assay type in all cases: functional
Acinetobacter pittii [1] = assay: Antibacterial activity against Acinetobacter genomosp. 3 isolates by broth micro dilution
Acinetobacter pittii [2] = assay: Antibacterial activity against Acinetobacter genomosp. 3 isolates assessed as percent of resistance isolates by broth micro dilution
Acinetobacter pittii [3] = assay: Antibacterial activity against Pulsotype F Acinetobacter genomosp. 3 isolate 4 containing IMP-1, OXA-58, ADC-18, ISAba1, ISAba3, IS18, IS1008, intI1 genetic elements by broth micro dilution
Acinetobacter pittii [4] = assay: Antibacterial activity against Pulsotype M Acinetobacter genomosp. 3 isolate 5 containing IMP-1, OXA-58, ADC-43, ISAba2, ISAba3, IS1008, intI1 genetic elements by broth micro dilution
Acinetobacter pittii [5] = assay: Antibacterial activity against Pulsotype K Acinetobacter genomosp. 3 isolate 6 containing IMP-1, OXA-58, ADC-18, ISAba1, ISAba3, IS1008, intI1 genetic elements by broth micro dilution
Acinetobacter pittii [6] = assay: Antibacterial activity against Pulsotype L Acinetobacter genomosp. 3 isolate 7 containing IMP-1, OXA-58, ADC-18, ISAba1, ISAba3, IS1008, intI1 genetic elements by broth micro dilution
Acinetobacter pittii [7] = assay: Antibacterial activity against Pulsotype B Acinetobacter genomosp. 3 isolate 8 containing IMP-1, OXA-58, ADC-18, ISAba1, ISAba3, IS1008, intI1 genetic elements by broth micro dilution
Acinetobacter pittii [8] = assay: Antibacterial activity against Pulsotype I Acinetobacter genomosp. 3 isolate 10 containing IMP-1, OXA-58, ADC-18, ISAba1, ISAba3, IS1008, intI1 genetic elements by broth micro dilution
Acinetobacter pittii [9] = assay: Antibacterial activity against Pulsotype I Acinetobacter genomosp. 3 isolate 11 containing IMP-1, OXA-58, ADC-18, ISAba1, ISAba3, IS1008, intI1 genetic elements by broth micro dilution
Acinetobacter pittii [10] = assay: Antibacterial activity against Pulsotype J Acinetobacter genomosp. 3 isolate 15 containing IMP-1, OXA-58, ADC-18, ISAba1, ISAba3, IS1008, intI1 genetic elements by broth micro dilution
Acinetobacter pittii [11] = assay: Antibacterial activity against Pulsotype D Acinetobacter genomosp. 3 isolate 18 containing IMP-1, OXA-58, ADC-18, ISAba1, ISAba3, repAcil, IS1008, intI1 genetic elements by broth micro dilution
Acinetobacter pittii [12] = assay: Antibacterial activity against Pulsotype C Acinetobacter genomosp. 3 isolate 1 containing IMP-1, OXA-58, ADC-18, ISAba1, ISAba3, IS1008, intI1 genetic elements by broth micro dilution
Acinetobacter pittii [13] = assay: Antibacterial activity against Pulsotype L Acinetobacter genomosp. 3 isolate 2 containing IMP-8, OXA-58, ADC-43, ISAba1, ISAba3, IS1008, intI1 genetic elements by broth micro dilution
Acinetobacter pittii [14] = assay: Antibacterial activity against Pulsotype C Acinetobacter genomosp. 3 isolate 1 containing IMP-1, OXA-58, ADC-18, ISAba1, ISAba3, IS1008, intI1 genetic elements by agar dilution method
Acinetobacter pittii [15] = assay: Antibacterial activity against Pulsotype L Acinetobacter genomosp. 3 isolate 2 containing IMP-8, OXA-58, ADC-43, ISAba1, ISAba3, IS1008, intI1 genetic elements by agar dilution method
Acinetobacter pittii [16] = assay: Antibacterial activity against Pulsotype F Acinetobacter genomosp. 3 isolate 4 containing IMP-1, OXA-58, ADC-18, ISAba1, ISAba3, IS18, IS1008, intI1 genetic elements by agar dilution method
Acinetobacter pittii [17] = assay: Antibacterial activity against Pulsotype M Acinetobacter genomosp. 3 isolate 5 containing IMP-1, OXA-58, ADC-43, ISAba2, ISAba3, IS1008, intI1 genetic elements by agar dilution method
Acinetobacter pittii [18] = assay: Antibacterial activity against Pulsotype K Acinetobacter genomosp. 3 isolate 6 containing IMP-1, OXA-58, ADC-18, ISAba1, ISAba3, IS1008, intI1 genetic elements by agar dilution method
Acinetobacter pittii [19] = assay: Antibacterial activity against Pulsotype L Acinetobacter genomosp. 3 isolate 7 containing IMP-1, OXA-58, ADC-18, ISAba1, ISAba3, IS1008, intI1 genetic elements by agar dilution method
Acinetobacter pittii [20] = assay: Antibacterial activity against Pulsotype B Acinetobacter genomosp. 3 isolate 8 containing IMP-1, OXA-58, ADC-18, ISAba1, ISAba3, IS1008, intI1 genetic elements by agar dilution method
Acinetobacter pittii [21] = assay: Antibacterial activity against Pulsotype I Acinetobacter genomosp. 3 isolate 10 containing IMP-1, OXA-58, ADC-18, ISAba1, ISAba3, IS1008, intI1 genetic elements by agar dilution method
Acinetobacter pittii [22] = assay: Antibacterial activity against Pulsotype I Acinetobacter genomosp. 3 isolate 11 containing IMP-1, OXA-58, ADC-18, ISAba1, ISAba3, IS1008, intI1 genetic elements by agar dilution method
Acinetobacter pittii [23] = assay: Antibacterial activity against Pulsotype J Acinetobacter genomosp. 3 isolate 15 containing IMP-1, OXA-58, ADC-18, ISAba1, ISAba3, IS1008, intI1 genetic elements by agar dilution method
Acinetobacter pittii [24] = assay: Antibacterial activity against Pulsotype D Acinetobacter genomosp. 3 isolate 18 containing IMP-1, OXA-58, ADC-18, ISAba1, ISAba3, repAcil, IS1008, intI1 genetic elements by agar dilution method
Acinetobacter pittii [25] = assay: Antibacterial activity against Acinetobacter genomosp. 3 isolates by agar dilution method
Acinetobacter pittii [26] = assay: Antibacterial activity against Acinetobacter genomosp. 3 isolates assessed as percent of resistance isolates by agar dilution method
Enterobacteriaceae [27] = assay: Antibacterial activity against Enterobacteriaceae assessed as susceptibility breakpoint by CLSI method
Enterobacteriaceae [28] = assay: Antibacterial activity against Enterobacteriaceae assessed as intermediate breakpoint by CLSI method
Enterobacteriaceae [29] = assay: Antibacterial activity against Enterobacteriaceae assessed as resistant breakpoint by CLSI method

Molecule | MIC50 (Acinetobacter pittii [1]) [µg/mL] | MIC90 (Acinetobacter pittii [1]) [µg/mL] | Activity (Acinetobacter pittii [2]) [%] | MIC (Acinetobacter pittii [3]) [µg/mL] | MIC (Acinetobacter pittii [4]) [µg/mL] | MIC (Acinetobacter pittii [5]) [µg/mL] | MIC (Acinetobacter pittii [6]) [µg/mL] | MIC (Acinetobacter pittii [7]) [µg/mL] | MIC (Acinetobacter pittii [8]) [µg/mL] | MIC (Acinetobacter pittii [9]) [µg/mL] | MIC (Acinetobacter pittii [10]) [µg/mL] | MIC (Acinetobacter pittii [11]) [µg/mL] | MIC (Acinetobacter pittii [12]) [µg/mL] | MIC (Acinetobacter pittii [13]) [µg/mL] | other results
NCC[C@H](O)C(=O)N[C@@H]1C[C@H](N)[C@@H](O[C@H]2O[C@H](CN)[C@@H](O)[C@H](O)[C@H]2O)[C@H](O)[C@H]1O[C@H]1O[C@H](CO)[C@@H](O)[C@H](N)[C@H]1O [AMIKACIN] | 32 (≈ 54.6 µM) | ≥ 64 | 52.6 |  |  |  |  |  |  |  |  |  |  |  | 
C[C@H]1[C@H](NC(=O)/C(=N\OC(C)(C)C(=O)O)c2csc(N)n2)C(=O)N1S(=O)(=O)O [AZTREONAM] | ≥ 32 | ≥ 32 | 94.7 | > 16 | > 16 | > 16 | > 16 | > 16 | > 16 | > 16 | > 16 | > 16 | > 16 | > 16 | 
CO/N=C(\C(=O)N[C@@H]1C(=O)N2C(C(=O)[O-])=C(C[N+]3(C)CCCC3)CS[C@H]12)c1csc(N)n1 [CEFEPIME] | ≥ 32 | ≥ 32 | 63.2 | > 16 | > 16 | > 16 | > 16 | > 16 | > 16 | > 16 | > 16 | > 16 | > 16 | > 16 | 
CC(C)(O/N=C(\C(=O)N[C@@H]1C(=O)N2C(C(=O)[O-])=C(C[n+]3ccccc3)CS[C@H]12)c1csc(N)n1)C(=O)O [CEFTAZIDIME] | ≥ 64 | ≥ 64 | 68.4 | > 32 | > 32 | > 32 | > 32 | > 32 | > 32 | > 32 | > 32 | > 32 | > 32 | > 32 | 
CO/N=C(\C(=O)N[C@@H]1C(=O)N2C(C(=O)O)=C(CSc3nc(=O)c(O)nn3C)CS[C@H]12)c1csc(N)n1 [CEFTRIAXONE] | ≥ 64 | ≥ 64 | 63.2 | > 32 | > 32 | > 32 | > 32 | > 32 | > 32 | > 32 | > 32 | > 32 | > 32 | > 32 | 
O=C(O)c1cn(C2CC2)c2cc(N3CCNCC3)c(F)cc2c1=O [CIPROFLOXACIN] | 0.25 (≈ 0.754 µM) | 2 (≈ 6.04 µM) | 5.3 |  |  |  |  |  |  |  |  |  |  |  | 
C[C@@H](O)[C@H]1C(=O)N2C(C(=O)O)=C(SCCNC=N)C[C@H]12 [IMIPENEM ANHYDROUS] | 16 (≈ 53.4 µM) | 32 (≈ 107 µM) | 57.9 | 64 (≈ 214 µM) | 16 (≈ 53.4 µM) | 16 (≈ 53.4 µM) | 32 (≈ 107 µM) | 32 (≈ 107 µM) | 32 (≈ 107 µM) | 32 (≈ 107 µM) | 16 (≈ 53.4 µM) | 32 (≈ 107 µM) | 32 (≈ 107 µM) | 32 (≈ 107 µM) | 
C[C@@H](O)[C@H]1C(=O)N2C(C(=O)O)=C(S[C@@H]3CN[C@H](C(=O)N(C)C)C3)[C@H](C)[C@H]12 [MEROPENEM] | 16 (≈ 41.7 µM) | 32 (≈ 83.4 µM) | 57.9 | 64 (≈ 167 µM) | 16 (≈ 41.7 µM) | 32 (≈ 83.4 µM) | 16 (≈ 41.7 µM) | 16 (≈ 41.7 µM) | 32 (≈ 83.4 µM) | 16 (≈ 41.7 µM) | 32 (≈ 83.4 µM) | 32 (≈ 83.4 µM) | 16 (≈ 41.7 µM) | 16 (≈ 41.7 µM) | 
CCN1CCN(C(=O)N[C@@H](C(=O)N[C@@H]2C(=O)N3[C@@H]2SC(C)(C)[C@@H]3C(=O)O)c2ccccc2)C(=O)C1=O [PIPERACILLIN] | ≥ 128 | ≥ 128 | 63.2 | > 64 | > 64 | > 64 | > 64 | > 64 | > 64 | > 64 | > 64 | 32 (≈ 61.8 µM) | > 64 | > 64 | 
CC1(C)[C@H](C(=O)O)N2C(=O)C[C@H]2S1(=O)=O [SULBACTAM] |  |  |  |  |  |  |  |  |  |  |  |  |  |  | MIC (Acinetobacter pittii [14]): 4 µg/mL (≈ 17.1 µM); MIC (Acinetobacter pittii [15]): 4 µg/mL (≈ 17.1 µM); MIC (Acinetobacter pittii [16]): 2 µg/mL (≈ 8.57 µM); MIC (Acinetobacter pittii [17]): 2 µg/mL (≈ 8.57 µM); MIC (Acinetobacter pittii [18]): 4 µg/mL (≈ 17.1 µM); MIC (Acinetobacter pittii [19]): 4 µg/mL (≈ 17.1 µM); MIC (Acinetobacter pittii [20]): 2 µg/mL (≈ 8.57 µM); MIC (Acinetobacter pittii [21]): 4 µg/mL (≈ 17.1 µM); MIC (Acinetobacter pittii [22]): 4 µg/mL (≈ 17.1 µM); MIC (Acinetobacter pittii [23]): 4 µg/mL (≈ 17.1 µM); MIC (Acinetobacter pittii [24]): 4 µg/mL (≈ 17.1 µM); MIC50 (Acinetobacter pittii [25]): 2 µg/mL (≈ 8.57 µM); MIC90 (Acinetobacter pittii [25]): 4 µg/mL (≈ 17.1 µM); Activity (Acinetobacter pittii [26]): 0%
CN(C)c1cc(NC(=O)CNC(C)(C)C)c(O)c2c1C[C@H]1C[C@H]3[C@H](N(C)C)C(O)=C(C(N)=O)C(=O)[C@@]3(O)C(O)=C1C2=O [TIGECYCLINE] | 0.12 (≈ 0.205 µM) | 0.5 (≈ 0.854 µM) | 0 |  |  |  |  |  |  |  |  |  |  |  | Activity (Enterobacteriaceae [27]): <=2 ug ml-1; Activity (Enterobacteriaceae [28]): 4 µg/mL; Activity (Enterobacteriaceae [29]): >=8 ug ml-1
NC[C@H]1O[C@H](O[C@H]2[C@H](O)[C@@H](O[C@H]3O[C@H](CO)[C@@H](O)[C@H](N)[C@H]3O)[C@H](N)C[C@@H]2N)[C@H](N)C[C@@H]1O [TOBRAMYCIN] | 8 (≈ 17.1 µM) | ≥ 16 | 42.1 |  |  |  |  |  |  |  |  |  |  |  | 
COLISTIN | 1 | 2 | 0 |  |  |  |  |  |  |  |  |  |  |  | 
GENTAMICIN | 8 | > 16 | 52.6 |  |  |  |  |  |  |  |  |  |  |  | 
